{
  "source": "patent US9687553B2",
  "about": "“Polymeric nanocarriers with linear dual response mechanism” (priority 2010, dated 2017)",
  "key": {"[1]": {"assay": "Relaxivity versus time, bench top contrast agent analyzer", "format": "physicochemical", "source_text": "To probe the relationship between degradation and relaxivity further, real-time T1 measurements were taken of the polymer solutions using a Bruker minispec mq60 bench top contrast agent analyzer. This machine is able to take rapid T1 measurements over a long duration, allowing for real-time data to be collected. Following data collection, a relationship between T1 and relaxivity can be made, and the relaxivity can be plotted versus time. The relaxivity measurements were then normalized for direct comparison between the two polymer CAs.\nSamples were first incubated at 37° C. and various pH values and then measured continuously over time.\nTo investigate the change in relaxivity over time at different pH values further, continuous T1 measurements were taken using a bench top contrast agent analyzer. Using this machine, the T1 time of a 200 μl solution in an NMR tube is able to be measured. Furthermore, the measurement duration is short, allowing for a more real-time investigation of the T1 time. Finally, the software allows for sequential measurements to be performed, allowing for over 24 h of continuous T1 data to be taken.\nSolutions of both polymer contrast agents were prepared at the desired pH values and pre-incubated for 5 min at 37° C. prior to T1 measurements. […]"}, "[2]": {"settings": "Gd chelate; cited from earlier work"}, "HCT116 cells": {"system": "HCT116 cells", "assay": "Transfection and EGFP expression, microscopy and flow cytometry", "format": "cell-based", "settings": "300 nM bafilomycin A1, nanocarrier delivery", "description": "Expression and transfection efficiency of the HCT116 cells was tested by incubating them for 4 hr before washing excess nanocarriers and incubating cells in fresh media for 48 hr. […] PLGA-treated cells only had 2% of the cell population with signal intensity above background.\nImmediate burst degradation and release of DNA from the dual pH-responsive nanocarriers only occurs in an environment of low pH. The endosome's low pH offers the appropriate stimulus to solubilize the polymer, resulting in an accelerated degradation via ketal hydrolysis. Bafilomycin A1, an inhibitor of V-ATPase, blocks the acidification of endosomes and has been previously used to characterize the mechanism of release of pH dependent polyplexes and nanocarriers. […] EGFP expression via nanocarrier delivery in HCT116 cells, measured by mean fluorescence, was affected by the presence of bafilomycin A1, causing 66% reduction in signal relative to non-treated cells (FIG. 37). […]\nHCT116 cells were plated at a ˜50% density in a 24 well culture plate and allowed to attach overnight. […] The cells were then incubated for 48 hours and subsequently analyzed by fluorescence microscopy (Nikon) or flow-cytometry (Accuri C6) to detect green fluorescence. […] For flow cytometry, cells were first trysonized for […] followed by two washes with PBS and analyzed immediately. […]"}},
  "data": [
    {"compound": "O=C([O-])CN(CCN(CC(=O)[O-])CC(=O)O)CCN(CC(=O)[O-])CC(=O)O.[Gd+3]", "note": "[Gd-DTPA]", "values": [
      {"measurement": "relaxivity as measured", "setting": "[1]", "value": "3.64 ± 0.12", "unit": "mM⁻¹ s⁻¹"},
      {"measurement": "stability constant (log K)", "setting": "[2]", "value": 22.46}
    ]},
    {"compound": "CO/C1=C\\C(C)=C\\[C@@H](C)[C@@H](O)[C@@H](C)C/C(C)=C/C=C/[C@H](OC)[C@@H]([C@@H](C)[C@@H](O)[C@H](C)[C@@]2(O)C[C@@H](O)[C@H](C)[C@@H](C(C)C)O2)OC1=O", "note": "[bafilomycin A1]", "values": [
      {"measurement": "reduction in EGFP signal (mean fluorescence) relative to non-treated cells", "setting": "HCT116 cells", "value": 66, "unit": "%"}
    ]},
    {"compound": "Gd-DTPA-bisamide", "values": [
      {"measurement": "stability constant (log K)", "setting": "[2]", "value": 16.84}
    ]}
  ]
}
